From ChEMBL document CHEMBL1201862, “PubChem BioAssay data set” (2004)
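Results reflect a 48-hour exposure of cells in 96-well plates to compound at five concentrations. At the GI50, growth is halved.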 Activity calls are given as the source filed them. No stated cut-off is given here; in the data, active = GI50 up to about 1.1 µM and inactive = higher.

How the values were obtained:
Assay in all cases: inhibition of tumour cell growth, NCI panel, 48 h
SK-MEL-28 = test system: SK-MEL-28
LOX IMVI = test system: LOX IMVI
Hs-578T = test system: Hs-578T
MOLT-4 = test system: MOLT-4
NCI-H460 = test system: NCI-H460
EKVX = test system: EKVX
SK-OV-3 = test system: SK-OV-3
OVCAR-3 = test system: OVCAR-3
HCT-15 = test system: HCT-15
MDA-MB-435 = test system: MDA-MB-435
SF-295 = test system: SF-295
NCI/ADR-RES = test system: NCI/ADR-RES
SNB-19 = test system: SNB-19
IGROV-1 = test system: IGROV-1
OVCAR-8 = test system: OVCAR-8
SNB-75 = test system: SNB-75
RPMI-8226 = test system: RPMI-8226
HCC 2998 = test system: HCC 2998
T47D = test system: T47D
HT-29 = test system: HT-29
OVCAR-4 = test system: OVCAR-4
M14 = test system: M14
NCI-H23 = test system: NCI-H23
Malme-3M = test system: Malme-3M
DU-145 = test system: DU-145
MDA-N = test system: MDA-N
OVCAR-5 = test system: OVCAR-5
786-0 = test system: 786-0
HOP-92 = test system: HOP-92
COLO 205 = test system: COLO 205
BT-549 = test system: BT-549
UACC-257 = test system: UACC-257
HOP-62 = test system: HOP-62
MDA-MB-231 = test system: MDA-MB-231
TK-10 = test system: TK-10
NCI-H522 = test system: NCI-H522
NCI-H226 = test system: NCI-H226
SW-620 = test system: SW-620
U-251 = test system: U-251
CAKI-1 = test system: CAKI-1
SF-268 = test system: SF-268
SK-MEL-5 = test system: SK-MEL-5
RXF 393 = test system: RXF 393
PC-3 = test system: PC-3
UACC-62 = test system: UACC-62
SR = test system: SR
SN12C = test system: SN12C
SF-539 = test system: SF-539
A549 = test system: A549
SK-MEL-2 = test system: SK-MEL-2
MCF7 = test system: MCF7
HCT-116 = test system: HCT-116
A498 = test system: A498
ACHN = test system: ACHN
KM12 = test system: KM12
UO-31 = test system: UO-31
CCRF-CEM = test system: CCRF-CEM
HL-60 = test system: HL-60

SMILES: CCOC(=O)/C(=C\c1ccc(CO)o1)P(=O)(OCC)OCC
- GI50 (SK-MEL-28): 30.7 µM (inactive)
- GI50 (LOX IMVI): 18.5 µM (inactive)
- GI50 (Hs-578T): 36.1 µM (inactive)
- GI50 (MOLT-4): 56.8 µM (inactive)
- GI50 (NCI-H460): 17 µM (inactive)
- GI50 (EKVX): > 100 µM (inactive)
- GI50 (SK-OV-3): 68.5 µM (inactive)
- GI50 (OVCAR-3): 18.9 µM (inactive)
- GI50 (HCT-15): 18.4 µM
- GI50 (MDA-MB-435): 29 µM (inactive)
- GI50 (SF-295): > 100 µM (inactive)
- GI50 (NCI/ADR-RES): 22.2 µM (inactive)
- GI50 (SNB-19): 63.2 µM (inactive)
- GI50 (IGROV-1): 37.2 µM (inactive)
- GI50 (OVCAR-8): > 10 µM (inactive)
- GI50 (SNB-75): 33 µM (inactive)
- GI50 (RPMI-8226): 40.7 µM (inactive)
- GI50 (HCC 2998): > 100 µM (inactive)
- GI50 (T47D): 91.2 µM (inactive)
- GI50 (HT-29): 33.2 µM (inactive)
- GI50 (OVCAR-4): 19.9 µM (inactive)
- GI50 (M14): 31.9 µM (inactive)
- GI50 (NCI-H23): 22.3 µM (inactive)
- GI50 (Malme-3M): 20.8 µM (inactive)
- GI50 (DU-145): 41.9 µM (inactive)
- GI50 (MDA-N): 22.8 µM (inactive)
- GI50 (OVCAR-5): 50 µM (inactive)
- GI50 (786-0): 19.7 µM (inactive)
- GI50 (HOP-92): 23.7 µM (inactive)
- GI50 (COLO 205): 23 µM (inactive)
- GI50 (BT-549): 20.1 µM (inactive)
- GI50 (UACC-257): 44.6 µM (inactive)
- GI50 (HOP-62): 45.8 µM (inactive)
- GI50 (MDA-MB-231): 31.7 µM (inactive)
- GI50 (TK-10): 49.5 µM (inactive)
- GI50 (NCI-H522): 3.88 µM (inactive)
- GI50 (NCI-H226): > 100 µM (inactive)
- GI50 (SW-620): 27.4 µM (inactive)
- GI50 (U-251): 42.4 µM (inactive)
- GI50 (CAKI-1): 55.7 µM (inactive)
- GI50 (SF-268): 28.2 µM (inactive)
- GI50 (SK-MEL-5): > 100 µM (inactive)
- GI50 (RXF 393): 34.3 µM (inactive)
- GI50 (PC-3): 5.43 µM (inactive)
- GI50 (UACC-62): 38.7 µM (inactive)
- GI50 (SR): 41.9 µM (inactive)
- GI50 (SN12C): 30.5 µM (inactive)
- GI50 (SF-539): 19.7 µM (inactive)
- GI50 (A549): > 100 µM (inactive)
- GI50 (SK-MEL-2): 25.2 µM (inactive)
- GI50 (MCF7): 43.9 µM (inactive)
- GI50 (HCT-116): 24.4 µM (inactive)
- GI50 (A498): 55.3 µM (inactive)
- GI50 (ACHN): 61.1 µM (inactive)
- GI50 (KM12): 33.3 µM (inactive)

SMILES: COc1cc(OC)cc(OCc2ccc3nc(-c4ccccc4)c(Cl)nc3c2)c1
- GI50 (SK-MEL-28): > 100 µM (inactive)
- GI50 (LOX IMVI): 43.1 µM (inactive)
- GI50 (Hs-578T): 27.3 µM (inactive)
- GI50 (MOLT-4): 25.9 µM (inactive)
- GI50 (NCI-H460): 37 µM (inactive)
- GI50 (EKVX): 27 µM (inactive)
- GI50 (OVCAR-3): > 100 µM (inactive)
- GI50 (HCT-15): > 100 µM
- GI50 (UO-31): 66.2 µM (inactive)
- GI50 (MDA-MB-435): 84.5 µM (inactive)
- GI50 (SF-295): 22.5 µM (inactive)
- GI50 (NCI/ADR-RES): 25 µM (inactive)
- GI50 (SNB-19): 25.9 µM (inactive)
- GI50 (IGROV-1): 21.1 µM (inactive)
- GI50 (OVCAR-8): 25.8 µM (inactive)
- GI50 (SNB-75): 15.8 µM (inactive)
- GI50 (RPMI-8226): 33.4 µM (inactive)
- GI50 (HCC 2998): 32.7 µM (inactive)
- GI50 (T47D): 24.7 µM (inactive)
- GI50 (HT-29): 48.5 µM (inactive)
- GI50 (OVCAR-4): 24.1 µM (inactive)
- GI50 (M14): > 100 µM (inactive)
- GI50 (NCI-H23): 17.3 µM (inactive)
- GI50 (Malme-3M): 11 µM (inactive)
- GI50 (DU-145): 52.7 µM (inactive)
- GI50 (MDA-N): 44.1 µM (inactive)
- GI50 (CCRF-CEM): > 100 µM (inactive)
- GI50 (OVCAR-5): 49 µM (inactive)
- GI50 (786-0): 9.89 µM (inactive)
- GI50 (HOP-92): 18.8 µM (inactive)
- GI50 (COLO 205): 25.2 µM (inactive)
- GI50 (BT-549): 31.3 µM (inactive)
- GI50 (UACC-257): > 100 µM (inactive)
- GI50 (HOP-62): 16.7 µM (inactive)
- GI50 (MDA-MB-231): 7.16 µM (inactive)
- GI50 (TK-10): 20.2 µM (inactive)
- GI50 (NCI-H522): 5.05 µM (inactive)
- GI50 (SW-620): 59.8 µM (inactive)
- GI50 (U-251): 20.9 µM (inactive)
- GI50 (CAKI-1): 11.5 µM (inactive)
- GI50 (SF-268): 30.5 µM (inactive)
- GI50 (SK-MEL-5): 14.5 µM (inactive)
- GI50 (PC-3): 37.6 µM (inactive)
- GI50 (UACC-62): 32.4 µM (inactive)
- GI50 (SR): 19.7 µM (inactive)
- GI50 (SN12C): 40.7 µM (inactive)
- GI50 (SF-539): 18.4 µM (inactive)
- GI50 (A549): 49.9 µM (inactive)
- GI50 (SK-MEL-2): 35.6 µM (inactive)
- GI50 (HL-60): 54.6 µM (inactive)
- GI50 (MCF7): 58.6 µM (inactive)
- GI50 (HCT-116): 29 µM (inactive)
- GI50 (A498): 35 µM (inactive)
- GI50 (ACHN): 17.7 µM (inactive)
- GI50 (KM12): 58.3 µM (inactive)
